{"source": "ChEMBL document CHEMBL5726941", "about": "“Naphthyridine compounds, medical combinations and use thereof” (2018)", "target": "Hepatocyte growth factor receptor (Homo sapiens, UniProt P08581)", "sequence (P08581 whole entry)": "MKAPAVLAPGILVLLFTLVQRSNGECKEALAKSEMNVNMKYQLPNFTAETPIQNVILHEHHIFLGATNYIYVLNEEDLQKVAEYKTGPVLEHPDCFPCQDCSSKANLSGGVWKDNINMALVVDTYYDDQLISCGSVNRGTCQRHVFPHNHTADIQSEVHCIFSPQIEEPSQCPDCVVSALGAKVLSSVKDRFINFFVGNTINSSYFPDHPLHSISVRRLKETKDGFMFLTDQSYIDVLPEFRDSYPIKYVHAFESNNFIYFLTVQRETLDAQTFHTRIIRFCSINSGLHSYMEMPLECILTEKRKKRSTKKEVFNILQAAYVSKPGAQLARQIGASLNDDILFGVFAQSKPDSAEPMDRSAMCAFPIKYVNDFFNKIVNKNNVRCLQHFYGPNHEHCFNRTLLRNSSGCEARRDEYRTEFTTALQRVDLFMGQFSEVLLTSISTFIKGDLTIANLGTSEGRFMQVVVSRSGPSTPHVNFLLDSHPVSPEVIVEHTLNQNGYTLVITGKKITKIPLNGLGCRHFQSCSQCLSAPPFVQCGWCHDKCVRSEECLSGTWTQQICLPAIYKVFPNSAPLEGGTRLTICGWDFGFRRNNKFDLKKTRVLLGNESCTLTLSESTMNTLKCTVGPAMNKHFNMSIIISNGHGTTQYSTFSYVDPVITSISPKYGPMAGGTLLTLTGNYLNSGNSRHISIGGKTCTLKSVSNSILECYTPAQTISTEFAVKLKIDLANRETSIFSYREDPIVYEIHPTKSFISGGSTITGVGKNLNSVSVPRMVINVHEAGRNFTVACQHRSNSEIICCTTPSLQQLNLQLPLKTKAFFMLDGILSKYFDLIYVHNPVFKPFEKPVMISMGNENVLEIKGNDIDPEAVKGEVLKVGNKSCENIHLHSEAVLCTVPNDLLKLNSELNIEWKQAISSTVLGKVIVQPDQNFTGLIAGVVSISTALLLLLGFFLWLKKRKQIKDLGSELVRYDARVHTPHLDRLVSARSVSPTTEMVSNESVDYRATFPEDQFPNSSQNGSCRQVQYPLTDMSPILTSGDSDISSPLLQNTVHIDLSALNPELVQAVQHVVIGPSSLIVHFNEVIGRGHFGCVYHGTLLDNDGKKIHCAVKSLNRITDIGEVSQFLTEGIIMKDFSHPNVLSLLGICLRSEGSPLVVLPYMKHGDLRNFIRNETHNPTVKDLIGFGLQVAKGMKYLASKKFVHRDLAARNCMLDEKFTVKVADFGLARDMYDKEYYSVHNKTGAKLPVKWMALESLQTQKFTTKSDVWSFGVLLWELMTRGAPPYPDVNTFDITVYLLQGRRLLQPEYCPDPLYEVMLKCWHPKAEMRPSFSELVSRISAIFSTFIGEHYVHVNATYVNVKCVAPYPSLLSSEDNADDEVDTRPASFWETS", "experiment": "Inhibition Assay: A study on inhibition of protein kinases activity at in vitro biochemical levelMaterial and method: kinases such as c-Met, VEGFR-2, Axl and RET, obtained from Invitrogen; HTRF KinEASE; TK kit (Cisbio Company); 384-well plate (Greiner Company); ATP (Sigma Company), MgCl2 (Sigma Company); PHERAstar FS multifunctional plate reader (BMG Company); conventional centrifuge (StaiteXiangyi Company); incubator (Binder Company). […] Meanwhile, 4 μL 1.33× enzymatic buffer is added as the negative control. 2 μL compound working solution is added into each well, and 2 μL 8% DMSO in water is added as zero compound level control (i.e., positive control). At 25° C. (or 30 C), incubate for 5-10 min; add 2 μL substrate working solution into each well to initiate the enzymatic reaction. Allow to react while shaking at 25° C. (or 30° C.) for 15-60 min.", "data": [{"smiles": "COc1cc2nccc(Oc3ccc(Nc4nccc5[nH]cc(-c6ccc(F)cc6)c(=O)c45)cc3F)c2cc1OC", "values": [{"measurement": "IC50", "result": 0.143, "unit": "µM"}]}]}
